The target in one experiment is Histone deacetylase 3 (Homo sapiens, UniProt O15379). The experiment can be described thus: Inhibition of human recombinant HDAC3 expressed in baculovirus infected insect high5 cells using Ac-Lys-Tyr-Lys (epsilon-acetyl)-AMC as substrate after 3 to 24 hrs by fluorescence assay.
Another experiment deals with Histone deacetylase 1 (Homo sapiens, UniProt Q13547). Description: Inhibition of human recombinant HDAC1 expressed in baculovirus infected insect high5 cells using Ac-Lys-Tyr-Lys (epsilon-acetyl)-AMC as substrate after 3 to 24 hrs by fluorescence assay.
In a further experiment the test system is HCT-116. Description: cells. The conditions noted are these: Homo sapiens, HCT-116, 72 h.
Experiment [1] addresses T1, Protein deacetylase HDAC6 (Homo sapiens, UniProt Q9UBN7).
T1 sequence (Q9UBN7 whole entry): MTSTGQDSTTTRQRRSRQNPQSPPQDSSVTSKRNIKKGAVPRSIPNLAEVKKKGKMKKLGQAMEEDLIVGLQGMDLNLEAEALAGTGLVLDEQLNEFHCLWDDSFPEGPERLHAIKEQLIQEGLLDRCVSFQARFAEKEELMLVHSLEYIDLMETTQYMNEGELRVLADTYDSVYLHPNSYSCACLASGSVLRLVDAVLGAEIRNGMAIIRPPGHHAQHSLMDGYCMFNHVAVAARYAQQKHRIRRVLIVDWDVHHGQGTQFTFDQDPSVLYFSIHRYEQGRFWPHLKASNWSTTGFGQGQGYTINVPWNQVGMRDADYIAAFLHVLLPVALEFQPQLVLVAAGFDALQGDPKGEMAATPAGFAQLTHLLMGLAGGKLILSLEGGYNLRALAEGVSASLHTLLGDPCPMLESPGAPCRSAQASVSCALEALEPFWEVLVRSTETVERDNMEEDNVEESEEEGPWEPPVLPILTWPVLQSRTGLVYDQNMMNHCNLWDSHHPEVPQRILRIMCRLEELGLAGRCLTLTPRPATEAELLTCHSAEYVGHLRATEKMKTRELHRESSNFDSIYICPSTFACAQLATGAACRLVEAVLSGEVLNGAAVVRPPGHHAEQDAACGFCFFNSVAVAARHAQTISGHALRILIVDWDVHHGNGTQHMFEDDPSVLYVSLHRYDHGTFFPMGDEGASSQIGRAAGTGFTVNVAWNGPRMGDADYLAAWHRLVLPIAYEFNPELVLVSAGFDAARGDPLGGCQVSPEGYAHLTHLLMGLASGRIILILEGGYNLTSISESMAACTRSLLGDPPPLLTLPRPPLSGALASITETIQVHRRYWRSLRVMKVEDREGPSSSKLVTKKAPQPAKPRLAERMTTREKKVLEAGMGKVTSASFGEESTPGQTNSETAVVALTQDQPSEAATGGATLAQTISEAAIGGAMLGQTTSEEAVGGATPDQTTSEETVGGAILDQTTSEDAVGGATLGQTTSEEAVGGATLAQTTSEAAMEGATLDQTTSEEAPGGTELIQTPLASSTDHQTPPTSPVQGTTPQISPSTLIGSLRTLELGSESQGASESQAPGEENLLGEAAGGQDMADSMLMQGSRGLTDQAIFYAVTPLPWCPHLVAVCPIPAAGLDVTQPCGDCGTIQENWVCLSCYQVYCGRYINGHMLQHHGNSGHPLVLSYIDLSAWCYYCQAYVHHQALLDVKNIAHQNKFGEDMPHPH
Description: Inhibition of human recombinant HDAC6 expressed in baculovirus infected insect high5 cells using Boc-Lys (epsilon-acetyl)-AM) as substrate after 3 to 24 hrs by fluorescence assay.

For a further experiment, the target named is Histone deacetylase 2 (Homo sapiens, UniProt Q92769). Description: Inhibition of HDAC2 (unknown origin).
For the next experiment, the system named is A549. The experiment can be described thus: Antiproliferative activity against human A549 cells assessed as cell viability after 72 hrs by MTT assay. Type of experiment: functional, cell-based. The conditions noted are these: A549, 72 h.
Experiment [2] has as its target DNA topoisomerase 2-alpha (Homo sapiens) (UniProt P11388). The experiment can be described thus: Inhibition of Topoisomerase 2 (unknown origin) assessed as impairment of pBR322 DNA decatenation at 100 uM after 30 mins by agarose gel electrophoresis.

The source made the active and inactive calls. The rule behind the calls is not given here.

Chain of DNA topoisomerase 2-alpha (Homo sapiens) (P11388 whole entry): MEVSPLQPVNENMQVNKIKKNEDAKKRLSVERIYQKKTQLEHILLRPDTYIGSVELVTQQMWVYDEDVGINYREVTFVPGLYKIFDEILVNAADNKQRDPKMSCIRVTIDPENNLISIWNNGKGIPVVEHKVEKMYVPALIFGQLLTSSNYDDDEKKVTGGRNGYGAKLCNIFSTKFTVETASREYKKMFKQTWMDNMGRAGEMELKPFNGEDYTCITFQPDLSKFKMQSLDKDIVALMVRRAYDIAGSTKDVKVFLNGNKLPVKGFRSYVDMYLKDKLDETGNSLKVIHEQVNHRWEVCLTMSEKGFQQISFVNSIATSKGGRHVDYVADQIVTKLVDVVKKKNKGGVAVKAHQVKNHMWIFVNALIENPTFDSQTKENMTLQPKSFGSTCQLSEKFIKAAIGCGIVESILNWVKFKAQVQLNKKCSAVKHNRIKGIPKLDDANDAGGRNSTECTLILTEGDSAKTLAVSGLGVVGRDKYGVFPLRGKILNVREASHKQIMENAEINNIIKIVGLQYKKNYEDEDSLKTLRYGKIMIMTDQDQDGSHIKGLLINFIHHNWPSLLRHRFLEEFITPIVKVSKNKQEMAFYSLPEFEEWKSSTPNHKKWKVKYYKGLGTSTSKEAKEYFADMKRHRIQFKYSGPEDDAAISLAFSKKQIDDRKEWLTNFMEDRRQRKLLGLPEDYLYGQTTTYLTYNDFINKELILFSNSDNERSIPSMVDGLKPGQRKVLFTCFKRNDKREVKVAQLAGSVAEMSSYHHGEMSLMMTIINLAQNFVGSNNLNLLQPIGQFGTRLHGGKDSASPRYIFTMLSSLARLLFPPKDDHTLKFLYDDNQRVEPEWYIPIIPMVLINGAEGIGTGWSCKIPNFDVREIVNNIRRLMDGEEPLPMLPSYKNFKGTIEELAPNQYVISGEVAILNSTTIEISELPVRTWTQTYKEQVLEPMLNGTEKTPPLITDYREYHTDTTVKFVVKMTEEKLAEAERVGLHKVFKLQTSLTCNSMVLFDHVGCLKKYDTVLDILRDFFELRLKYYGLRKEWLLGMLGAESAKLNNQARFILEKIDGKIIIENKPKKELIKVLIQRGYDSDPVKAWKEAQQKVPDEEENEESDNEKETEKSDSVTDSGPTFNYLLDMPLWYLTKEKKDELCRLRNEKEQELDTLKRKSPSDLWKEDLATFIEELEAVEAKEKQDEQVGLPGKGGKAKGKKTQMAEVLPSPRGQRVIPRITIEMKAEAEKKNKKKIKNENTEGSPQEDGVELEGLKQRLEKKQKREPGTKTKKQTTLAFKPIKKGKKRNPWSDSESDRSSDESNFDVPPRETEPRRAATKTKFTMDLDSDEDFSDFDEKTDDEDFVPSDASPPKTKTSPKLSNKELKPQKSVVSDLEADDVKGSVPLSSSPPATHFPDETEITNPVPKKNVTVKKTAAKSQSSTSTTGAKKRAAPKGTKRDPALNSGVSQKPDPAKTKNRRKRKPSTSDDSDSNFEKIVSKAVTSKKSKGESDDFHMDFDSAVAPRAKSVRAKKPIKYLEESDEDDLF
Chain of Histone deacetylase 1 (Q13547 whole entry): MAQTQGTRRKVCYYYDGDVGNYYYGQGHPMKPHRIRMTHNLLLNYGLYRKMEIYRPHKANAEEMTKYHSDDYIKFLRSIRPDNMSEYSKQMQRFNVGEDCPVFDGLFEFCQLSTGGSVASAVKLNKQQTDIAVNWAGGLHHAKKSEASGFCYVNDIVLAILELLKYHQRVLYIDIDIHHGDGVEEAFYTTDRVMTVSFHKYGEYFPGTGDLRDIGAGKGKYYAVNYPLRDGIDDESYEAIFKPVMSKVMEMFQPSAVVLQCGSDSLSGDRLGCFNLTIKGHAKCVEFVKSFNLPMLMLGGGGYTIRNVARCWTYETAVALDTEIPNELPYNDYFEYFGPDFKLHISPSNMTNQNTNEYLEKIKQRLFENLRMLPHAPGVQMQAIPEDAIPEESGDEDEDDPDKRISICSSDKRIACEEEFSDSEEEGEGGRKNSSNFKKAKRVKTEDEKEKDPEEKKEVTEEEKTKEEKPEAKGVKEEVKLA
Chain of Histone deacetylase 3 (O15379 whole entry): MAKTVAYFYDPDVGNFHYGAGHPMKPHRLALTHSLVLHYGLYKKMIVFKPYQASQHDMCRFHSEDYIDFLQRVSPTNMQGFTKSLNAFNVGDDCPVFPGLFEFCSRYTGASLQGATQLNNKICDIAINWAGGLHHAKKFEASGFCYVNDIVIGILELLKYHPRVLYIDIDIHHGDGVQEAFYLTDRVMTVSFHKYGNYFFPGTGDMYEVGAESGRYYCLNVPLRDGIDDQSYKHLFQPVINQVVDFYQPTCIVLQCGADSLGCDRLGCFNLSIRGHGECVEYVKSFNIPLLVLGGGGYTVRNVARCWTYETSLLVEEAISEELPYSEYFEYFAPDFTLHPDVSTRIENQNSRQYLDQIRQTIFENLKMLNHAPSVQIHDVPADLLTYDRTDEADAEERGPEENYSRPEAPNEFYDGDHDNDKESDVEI
Chain of Histone deacetylase 2 (Q92769 whole entry): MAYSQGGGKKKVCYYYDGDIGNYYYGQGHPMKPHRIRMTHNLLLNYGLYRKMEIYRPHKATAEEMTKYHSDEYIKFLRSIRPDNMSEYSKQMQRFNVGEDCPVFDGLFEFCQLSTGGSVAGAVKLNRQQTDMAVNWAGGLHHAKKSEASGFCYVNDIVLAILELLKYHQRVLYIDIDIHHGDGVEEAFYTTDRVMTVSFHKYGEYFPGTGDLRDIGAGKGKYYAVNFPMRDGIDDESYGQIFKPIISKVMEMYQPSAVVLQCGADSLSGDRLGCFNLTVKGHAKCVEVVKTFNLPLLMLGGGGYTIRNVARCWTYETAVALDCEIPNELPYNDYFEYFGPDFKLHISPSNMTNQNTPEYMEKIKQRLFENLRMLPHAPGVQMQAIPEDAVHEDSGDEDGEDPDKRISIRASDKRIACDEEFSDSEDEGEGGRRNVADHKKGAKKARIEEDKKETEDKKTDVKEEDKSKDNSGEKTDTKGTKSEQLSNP
Description for HCT-116: Antiproliferative activity against human HCT116 cells assessed as cell viability after 72 hrs by MTT assay

As a reminder, the IC50 is the concentration that inhibits the measured activity by half. Regarding `COc1cc([C@@H]2c3cc4c(cc3[C@@H](Nc3ccc(OCCCCC(=O)NO)cc3)[C@H]3COC(=O)[C@H]23)OCO4)cc(OC)c1O`, the IC50 on Histone deacetylase 3 turned out to be 0.242 µM; on Histone deacetylase 1 it was 0.125 µM; in the experiment on HCT-116 it was 5.26 µM; in experiment [1], 0.088 µM.

For `COc1cc([C@@H]2c3cc4c(cc3[C@@H](Nc3ccccc3OCCCCC(=O)NO)[C@H]3COC(=O)[C@H]23)OCO4)cc(OC)c1O`, the IC50 at Histone deacetylase 3 was 0.899 µM; on Histone deacetylase 1 it was 0.369 µM; in the experiment with HCT-116 it was 16.5 µM; in experiment [1], 0.084 µM.

On to `COc1cc([C@@H]2c3cc4c(cc3[C@@H](Nc3cccc(OCCCCCCC(=O)Nc5ccccc5N)c3)[C@H]3COC(=O)[C@H]23)OCO4)cc(OC)c1O`, for which the 50% inhibitory concentration (IC50) with HCT-116 was 0.92 µM; at Histone deacetylase 2 it was 53.5 µM; in the experiment on A549, 1.11 µM.

On to `COc1cc([C@@H]2c3cc4c(cc3[C@@H](O[C@@H]3O[C@@H]5CO[C@@H](C)O[C@H]5[C@H](O)[C@H]3O)[C@H]3COC(=O)[C@H]23)OCO4)cc(OC)c1O` [ETOPOSIDE], for which the IC50 on Histone deacetylase 1 is over 34 µM; with HCT-116, 0.87 µM. The inhibition result in experiment [2] was “Active”.

With `COc1cc([C@@H]2c3cc4c(cc3[C@@H](Nc3ccccc3OCCCCCCC(=O)NO)[C@H]3COC(=O)[C@H]23)OCO4)cc(OC)c1O`, the IC50 was 0.155 µM on Histone deacetylase 3, 0.072 µM at Histone deacetylase 1, 11.3 µM in the experiment on HCT-116 and 0.027 µM in experiment [1]. In experiment [2], the inhibition entry was “Active”.

On to `COc1cc([C@@H]2c3cc4c(cc3[C@@H](Nc3ccc(OCCCCCCC(=O)Nc5ccccc5N)cc3)[C@H]3COC(=O)[C@H]23)OCO4)cc(OC)c1O`, for which the half-inhibitory concentration (IC50) on Histone deacetylase 3 was 11.6 µM; at Histone deacetylase 1 it was 14.1 µM; with HCT-116, 0.52 µM; at Histone deacetylase 2 it was 10.4 µM; in the experiment with A549, 1.16 µM. The inhibition entry in experiment [2] is “Active”.

In the case of `COc1cc([C@@H]2c3cc4c(cc3[C@@H](Nc3ccc(OCCCCCC(=O)NO)cc3)[C@H]3COC(=O)[C@H]23)OCO4)cc(OC)c1O`, the half-maximal inhibitory concentration (IC50) on Histone deacetylase 3 is 0.069 µM; on Histone deacetylase 1, 0.207 µM; in the experiment with HCT-116 it was 4.92 µM; in experiment [1], 0.026 µM.

As to `COc1cc([C@@H]2c3cc4c(cc3[C@@H](Nc3ccc(NC(=O)CCCCC(=O)NO)cc3)[C@H]3COC(=O)[C@H]23)OCO4)cc(OC)c1O`, the IC50 at Histone deacetylase 3 was 1.69 µM; on Histone deacetylase 1, 2.83 µM; in the experiment with HCT-116 it was 3.76 µM; in experiment [1], 1.06 µM.

Regarding `COc1cc([C@@H]2c3cc4c(cc3[C@@H](Nc3cccc(OCCCCC(=O)NO)c3)[C@H]3COC(=O)[C@H]23)OCO4)cc(OC)c1O`, the IC50 stood at 0.111 µM on Histone deacetylase 3, 0.093 µM on Histone deacetylase 1, 6.29 µM in the experiment with HCT-116 and 0.042 µM in experiment [1].

Regarding `COc1cc([C@@H]2c3cc4c(cc3[C@@H](Nc3cccc(NC(=O)CCCCCCC(=O)NO)c3)[C@H]3COC(=O)[C@H]23)OCO4)cc(OC)c1O`, the IC50 at Histone deacetylase 3 is 0.13 µM; on Histone deacetylase 1, 0.1 µM; with HCT-116, 8.57 µM; in experiment [1] it was 0.04 µM. Further, the inhibition entry in experiment [2] is “Active”.

Consider `COc1cc([C@@H]2c3cc4c(cc3[C@@H](Nc3ccc(OCCCC(=O)NO)cc3)[C@H]3COC(=O)[C@H]23)OCO4)cc(OC)c1O`, for which the concentration for half-maximal inhibition (IC50) was determined as 0.193 µM on Histone deacetylase 3, 0.243 µM at Histone deacetylase 1, 5.37 µM in the experiment on HCT-116 and 0.214 µM in experiment [1].

For `COc1cc([C@@H]2c3cc4c(cc3[C@@H](Nc3ccc(NC(=O)CCCCCC(=O)NO)cc3)[C@H]3COC(=O)[C@H]23)OCO4)cc(OC)c1O`, the IC50 amounted to 0.52 µM on Histone deacetylase 3, 0.59 µM at Histone deacetylase 1, 2.94 µM in the experiment with HCT-116 and 0.13 µM in experiment [1].

On to `COc1cc([C@@H]2c3cc4c(cc3[C@@H](Nc3ccc(OCCCCCCCC(=O)NO)cc3)[C@H]3COC(=O)[C@H]23)OCO4)cc(OC)c1O`, for which the IC50 at Histone deacetylase 3 was 0.053 µM; at Histone deacetylase 1, 0.087 µM; with HCT-116 it was 3.72 µM; in experiment [1], 0.053 µM.

Turning to `O=C(CCCCCCC(=O)Nc1ccccc1)NO`, the inhibition result in experiment [2] was “inactive”.

Regarding `COc1cc([C@@H]2c3cc4c(cc3[C@@H](Nc3cccc(OCCCCCCCC(=O)NO)c3)[C@H]3COC(=O)[C@H]23)OCO4)cc(OC)c1O`, the IC50 on Histone deacetylase 3 stood at 0.069 µM; at Histone deacetylase 1, 0.039 µM; in the experiment on HCT-116 it was 5.19 µM; in experiment [1], 0.069 µM.

For `COc1cc([C@@H]2c3cc4c(cc3[C@@H](Nc3cccc(NC(=O)CCCCCC(=O)NO)c3)[C@H]3COC(=O)[C@H]23)OCO4)cc(OC)c1O`, the IC50 at Histone deacetylase 3 turned out to be 0.59 µM; on Histone deacetylase 1, 0.38 µM; in the experiment on HCT-116 it was 19.6 µM; in experiment [1], 0.16 µM.

With `COc1cc([C@@H]2c3cc4c(cc3[C@@H](Nc3cccc(OCCCCCCC(=O)NO)c3)[C@H]3COC(=O)[C@H]23)OCO4)cc(OC)c1O`, the IC50 on Histone deacetylase 3 worked out at 0.0096 µM; at Histone deacetylase 1 it was 0.011 µM; in the experiment with HCT-116, 3.33 µM; in experiment [1], 0.0056 µM. The inhibition result in experiment [2] was “Active”.

With `COc1cc([C@@H]2c3cc4c(cc3[C@@H](Nc3cccc(OCCCCCC(=O)NO)c3)[C@H]3COC(=O)[C@H]23)OCO4)cc(OC)c1O`, the IC50 at Histone deacetylase 3 worked out at 0.081 µM; at Histone deacetylase 1, 0.045 µM; in the experiment on HCT-116, 5.72 µM; in experiment [1] it was 0.015 µM.

In the case of `Nc1ccccc1NC(=O)c1ccc(CNc2nccc(-c3cccnc3)n2)cc1` [MOCETINOSTAT], the IC50 with HCT-116 was determined as 1.57 µM. Moreover, the inhibition result in experiment [2] is “inactive”.

`COc1cc([C@@H]2c3cc4c(cc3[C@@H](Nc3ccccc3OCCCC(=O)NO)[C@H]3COC(=O)[C@H]23)OCO4)cc(OC)c1O`: the IC50 came out at 1.44 µM on Histone deacetylase 3, 0.578 µM at Histone deacetylase 1, 28.9 µM in the experiment on HCT-116 and 0.357 µM in experiment [1].

On to `COc1cc([C@@H]2c3cc4c(cc3[C@@H](Nc3ccccc3OCCCCCC(=O)NO)[C@H]3COC(=O)[C@H]23)OCO4)cc(OC)c1O`, for which the IC50 at Histone deacetylase 3 was 0.188 µM; at Histone deacetylase 1, 0.145 µM; with HCT-116 it was 8.1 µM; in experiment [1], 0.02 µM.

In the case of `COc1cc([C@@H]2c3cc4c(cc3[C@@H](Nc3ccccc3OCCCCCCCC(=O)NO)[C@H]3COC(=O)[C@H]23)OCO4)cc(OC)c1O`, the IC50 at Histone deacetylase 3 was 0.217 µM; on Histone deacetylase 1, 0.175 µM; with HCT-116, 11.3 µM; in experiment [1], 0.217 µM.

Take `COc1cc([C@@H]2c3cc4c(cc3[C@@H](Nc3cccc(OCCCC(=O)NO)c3)[C@H]3COC(=O)[C@H]23)OCO4)cc(OC)c1O`: the IC50 was found to be 0.767 µM at Histone deacetylase 3, 0.385 µM at Histone deacetylase 1, 29.4 µM in the experiment on HCT-116 and 0.405 µM in experiment [1].

On to `COc1cc([C@@H]2c3cc4c(cc3[C@@H](Nc3cccc(NC(=O)CCCCC(=O)NO)c3)[C@H]3COC(=O)[C@H]23)OCO4)cc(OC)c1O`, for which the IC50 on Histone deacetylase 3 came out at 2.11 µM; at Histone deacetylase 1 it was 1.43 µM; in the experiment with HCT-116, 14.1 µM; in experiment [1], 0.52 µM.

In the case of `COc1cc([C@@H]2c3cc4c(cc3[C@@H](Nc3ccc(OCCCCCCC(=O)NO)cc3)[C@H]3COC(=O)[C@H]23)OCO4)cc(OC)c1O`, the 50% inhibitory concentration (IC50) stood at 0.049 µM at Histone deacetylase 3, 0.029 µM at Histone deacetylase 1, 5.03 µM in the experiment on HCT-116 and 0.016 µM in experiment [1]. Also, the inhibition entry in experiment [2] is “Active”.
